These results are taken from US4575498A, “Method for restoring depleted purine nucleotide pools” (priority 1983, dated 1986).

Data set [1] deals with T1, adenylosuccinate lyase (skeletal muscle) (Mus musculus, UniProt P54822).
T1 construct: the hearts and gastrocnemius muscles were excised, weighed, and homogenized to a slurry; from tissue; host or cells: gastrocnemius (skeletal) muscle of six-week-old C57BL/6J mice; dialyzed 10,000×g supernatant
T1 sequence (P54822 2-484 limits assumed): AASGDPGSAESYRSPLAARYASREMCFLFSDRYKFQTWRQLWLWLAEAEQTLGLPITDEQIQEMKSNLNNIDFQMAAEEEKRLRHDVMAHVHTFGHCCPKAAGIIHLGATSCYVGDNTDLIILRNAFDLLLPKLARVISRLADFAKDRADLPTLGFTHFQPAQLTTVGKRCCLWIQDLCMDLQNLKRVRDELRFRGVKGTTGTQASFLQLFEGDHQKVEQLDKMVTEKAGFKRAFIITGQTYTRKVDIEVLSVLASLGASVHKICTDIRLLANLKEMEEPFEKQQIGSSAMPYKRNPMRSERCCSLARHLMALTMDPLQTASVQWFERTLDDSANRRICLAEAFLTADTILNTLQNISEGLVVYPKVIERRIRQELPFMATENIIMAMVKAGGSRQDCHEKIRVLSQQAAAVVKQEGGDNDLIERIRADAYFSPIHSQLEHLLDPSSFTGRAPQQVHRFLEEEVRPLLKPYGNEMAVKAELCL
Briefly: Assay of adenylosuccinate lyase, skeletal muscle enzyme. Type of data set: biochemical, C57BL/6J mice. How it is done: (§1) Preparation and Assay of Adenylosuccinate Lyase--Six-week-old C57BL/6J mice were killed, and the hearts and gastrocnemius muscles were excised, weighed, and homogenized to a slurry in 4 volumes of 50 mM Tris-HCl, pH 7.4 at 25° C. containing 1 mM EDTA and 1 mM β-mercaptoethanol in a TenBroeck glass homogenizer. The homogenate was centrifuged at 10,000×g for 15 min and the supernatant was dialyzed against 1,000 volumes of the extraction buffer for 2 h at 4° C. The lyase activity was partially stabilized by the addition of EDTA and β-mercaptoethanol, but some activity was lost even on storage at -70° C.
(§2) The assays were carried out at pH 7.4 were reaction mixtures that contained 50 mM Tris-HCl buffer, 1 mM EDTA, 1 mM β-mercaptoethanol, 20 μM adenylosuccinate, and the enzyme extract (protein concentration, 0.13-0.20 mg/ml). The decrease in absorbance at 280 nm was measured using a Gilford recording spectrophotometer. All assays were done at 25° C. and were linear with respect to time of incubation and with the amount of protein in extract added to the assay.
(§3) These are average values for experiments with 4 separate enzyme preparations. The experimental points in the double reciprocal plots were fitted to the best line by the method of least squares with all points being weighted equally.

Data set [2] deals with T2, adenylosuccinate lyase (cardiac muscle) (Mus musculus, UniProt P54822).
T2 construct: the hearts and gastrocnemius muscles were excised, weighed, and homogenized to a slurry; from tissue; host or cells: heart of six-week-old C57BL/6J mice; dialyzed 10,000×g supernatant
T2 sequence (P54822 2-484 limits assumed): T1 sequence (P54822 2-484 limits assumed)
Kind of data set: Assay of adenylosuccinate lyase, cardiac enzyme. It counts as biochemical, C57BL/6J mice. How it is done: as §1, §2, §3

Another data set deals with cardiovascular system. Conditions: prior art statement; cited from earlier work.
Substrate in data set [3]: O=C(O)C[C@H](Nc1ncnc2c1ncn2[C@@H]1O[C@H](COP(=O)(O)O)[C@@H](O)[C@H]1O)C(=O)O
Kind of data set: Assay of adenylosuccinate lyase, cardiac enzyme. It counts as biochemical, C57BL/6J mice. To be noted: other: cardiac muscle enzyme, pH 7.4, 25° C., 4 enzyme preparations. The procedure: as §1, §2, §3

Substrate in data set [4]: O=C(O)C[C@H](Nc1ncnc2c1ncn2[C@@H]1O[C@H](COP(=O)(O)O)[C@@H](O)[C@H]1O)C(=O)O
Briefly: Assay of adenylosuccinate lyase, skeletal muscle enzyme. It counts as biochemical, C57BL/6J mice. To be noted: other: skeletal muscle enzyme, pH 7.4, 25° C., 4 enzyme preparations. The procedure:
as §1, §2, §3

“Also recorded” adds a separate entry of the source.

As for `NC(=O)c1ncn([C@@H]2O[C@H](COP(=O)(O)O)[C@@H](O)[C@H]2O)c1N` [AICAR, 5-Amino-4-imidazolecarboxamide Ribotide], the Ki (commonly the dissociation constant of the complex between target and ligand, obtained from inhibition or displacement) in data set [1] was determined as 7.6 ± 3.2 µM; in data set [2], 4.5 ± 1.7 µM. Also, the entries for the “maximal AICAR concentration exceeding Ki of adenylosuccinate lyase” value in data set [1] (skeletal muscle) and in data set [2] (cardiac muscle) were 18 fold and 180 fold, respectively.

`Nc1ncnc2c1ncn2[C@@H]1O[C@H](CO)[C@@H](O)[C@H]1O` [adenosine]: in the data set with cardiovascular system, the hemodynamic effects entry is listed as “profound changes in the hemodynamic status; also recorded: deleterious hemodynamic effects”.

As to `O=c1[nH]cnc2nc[nH]c12` [hypoxanthine], the hemodynamic effects entry in the data set with cardiovascular system is listed as “deleterious hemodynamic effects”.

Turning to `OC[C@H]1O[C@@H](n2cnc3c(O)ncnc32)[C@H](O)[C@@H]1O` [inosine], the hemodynamic effects entry in the data set on cardiovascular system is reported as “deleterious hemodynamic effects”.

B1: adenylosuccinate lyase (cardiac muscle) (Mus musculus) (protein)
chain: T1 sequence (P54822 2-484 limits assumed)
notes: the hearts and gastrocnemius muscles were excised, weighed, and homogenized to a slurry; from tissue; host or cells: heart of six-week-old C57BL/6J mice; dialyzed 10,000×g supernatant
For B1, in data set [3], the Km (commonly the substrate concentration at which the rate is half of its maximum) came out at 2.2 ± 0.3 µM.

B2: adenylosuccinate lyase (skeletal muscle) (Mus musculus) (protein)
chain: T1 sequence (P54822 2-484 limits assumed)
notes: the hearts and gastrocnemius muscles were excised, weighed, and homogenized to a slurry; from tissue; host or cells: gastrocnemius (skeletal) muscle of six-week-old C57BL/6J mice; dialyzed 10,000×g supernatant
As for B2, the Km in data set [4] is 4.5 ± 1.5 µM.
